Broadly, the Kd is the concentration at which binding is half-saturated.

Test [1] in a line: Tb^3+ binding of pKID peptides by fluorescence titration (dissociation constant determination). Conditions: for Kd: 5 mM HEPES (pH 7.8), 100 mM NaCl, read-out: Kd of peptide-Tb^3+ complex. As for the experimental part:
Fluorescence spectra were collected on a Photon Technology International fluorescence spectrometer model QM-3/2003 with a CW source and a Hamamatsu R928PMT. All experiments were conducted with an excitation wavelength of 280 nm. 6 nm excitation and emission slit widths were used unless otherwise indicated. All spectra were acquired at room temperature, collecting data every 1 nm with a scan rate of 1 nm per second. At least 3 independent binding titrations were conducted for each peptide. All spectra are uncorrected and have not been normalized, and only representative (median), non-averaged spectra are shown, unless otherwise indicated. All fluorescence experiments were conducted using a 495 nm highpass filter (model 495FG03-25 AM-53074; Andover Corporation, Andover, N.H.) on the emission monochromator.
Peptide solutions were prepared by dilution of stock solutions into 5 mM HEPES buffer (pH 7.8) with 100 mM NaCl. Spectra were acquired in 10 mm quartz fluorescence cells (Sterna). Tb^3+ titrations were conducted by dilution of a Tb^3+ solution into a peptide solution as described above. Each individual emission spectrum represents an independently prepared solution of peptide and metal. The Tb^3+ emission band at 544 nm was used to evaluate metal binding.
To determine dissociation constants for Tb^3+-peptide complexes, titrations were conducted in solutions of 5 mM HEPES (pH 7.8) and 100 mM NaCl, with 10 nm emission and excitation slit widths. All fluorescence experiments were conducted using a 495 nm highpass filter (model 495FG03-25 AM-53074; Andover Corporation, Andover, N.H.) on the emission monochromator. All TbCl3 solutions were standardized by titration with a standard solution of EDTA (1 mM) in the presence of xylenol orange indicator (10 μM) and sodium acetate buffer (pH 6.0, 10 mM). 500 μL of the 1 mM Tb^3+ stock solution was diluted to 1 mL to make a 0.5 mM solution and EDTA (1 mM) was added (approximately 500 μL) until the end point was reached (see FIGS. 11-13). The solutions were prepared as serial dilutions of Tb^3+, from 3.3 μM to 450 μM Tb^3+, and the fluorescence emission scan of each solution was acquired. Data points at the emission maximum of 544 nm were plotted against Tb^3+ concentration to calculate the final Kd. Data points indicate the average of at least three independent titrations. Error bars indicate standard error. The data were fit to equation (1) using a non-linear least squares fitting algorithm (KaleidaGraph version 3.6, Synergy Software), where Q fluorescence, Qo=fluorescence of the apopeptide, Qc=fluorescence of peptide-metal complex, Mt=total metal concentration, Kd=dissociation constant and Pt=total peptide concentration (10 μM). Dissociation constants in the presence of 2 mM Mg^2+ or 100 μM Ca^2+ were measured for pKID-PKA peptides to study the effect of these metals on Tb^3+-peptide complex formation.
Dissociation constants of the non-phosphorylated peptides were calculated by defining the maximum fluorescence of the non-phosphorylated peptide-Tb^3+ complex as equal to the maximum fluorescence of the phosphorylated peptide-Tb^3+ complex: Qc (non-phosphorylated peptide)=Qc (phosphorylated peptide), with Qc=the calculated fluorescence of the fully bonded phosphopeptide-Tb^3+ complex. Although the assumption of similar maximum fluorescence intensities of the Tb^3+ complexes of the non-phosphorylated and phosphorylated peptides may not be valid, it provides a measure of relative Tb^3+ fluorescence of the phosphorylated and non-phosphorylated peptides.

Test [2] addresses T1, Protein Kinase A (PKA) (Mus musculus, UniProt P05132).
T1 construct: purchased New England Biolabs
The test is described as follows: Phosphorylation of pKID peptides by protein kinase A (HPLC, fluorescence, ESI-MS). The class given is biochemical. To be noted: 200 μM peptide, 2.5 units PKA, 35° C., 12 hrs. As for the experimental part: Kinase specificity for protein kinase-inducible domain peptides was examined by incubation of protein kinase A with pKID-PKA, pKID-PKC and pKID-Erk. Experiments were conducted with 2.4 mM ATP (3 μL of freshly prepared 20 mM ATP), PKA buffer (3 μL of 10× buffer), and peptide (200 μM) with water in 25 μL final reaction volume. After incubation at 35° C. for 5 min, PKA enzyme solution (1 μL, 2.5 units) was added to start the reaction. After 12-14 hrs at 35° C., the reaction mixture was analyzed by fluorescence, HPLC and ESI-MS. The kinase reaction mixtures were analyzed by fluorescence by diluting the reaction mixture with 1 mL of a solution containing 5 mM HEPES buffer (pH 7.8), 100 mM NaCl, and 50 μM Tb^3+, and the resulting solution analyzed by fluorescence. Fluorescence experiments were conducted with 10 nm slit widths and a 495 nm highpass filter on the emission monochromator. Fluorescence data (FIG. 7) represent the average of four independent trials. Error bars indicate standard error.

A short description of test [3]: Ho^3+ competition experiment (reduction of Tb^3+ luminescence). Type of test: binding. To be noted: 10 μM phosphorylated peptide, 10 μM Tb^3+, increasing Ho^3+. As for the experimental part: Competition experiments were used to confirm site-specific lanthanide binding and to address whether pKID peptides are a general phosphorylation-dependent lanthanide-binding motif. In order to determine whether Tb^3+ binding is site-specific, competition experiments were performed with Ho^3+. Ho^3+ solutions were prepared from hydrates of the chloride salts in ultrapure water. The phosphorylated pKID-PKC peptide was tested for Ho^3+ binding by addition of aliquots of Ho^3+ to a solution containing 10 μM phosphorylated pKID-PKC and 10 μM Tb^3+. pKID-Tb^3+-Ho^3+ solutions were allowed to equilibrate for 2 minutes. Fluorescence experiments were conducted using a 495 nm highpass filter (model 495FG03-25 AM-53074; Andover Corporation, Andover, N.H.) on the emission monochromator and 8 nm slit widths.

The target of test [4] is T1, Protein Kinase A (PKA). The test is described as follows: Phosphorylation of pKID-PKA by protein kinase A in HeLa nuclear extract. Type of test: biochemical. To be noted: HeLa nuclear extract with added PKA, 3 h incubation.
Test [5] has as its system endogenous kinase present within the HeLa extracts. The test is described as follows: Phosphorylation of pKID-PKA in HeLa nuclear extract in the absence of added kinase. The class given is biochemical. Conditions: no added kinase. The protocol: Phosphorylation of pKID-PKA in HeLa nuclear extract in the absence of added kinase was also examined. Reaction mixtures were prepared as described previously to a final volume of 25 μL, but protein kinase A was not added. After addition of ATP and incubation for the indicated times, the reaction mixtures (25 μL, 500 μM peptide) were diluted with 200 μL of a solution containing […] buffer (pH 7.8), 100 mM NaCl and 100 μM Tb^3+ and analyzed by fluorescence as described previously. pKID-PKA was phosphorylated by endogenous kinase present within the HeLa extracts to approximately 10% conversion as determined by fluorescence and HPLC (see FIG. 5, right).

“Also recorded” adds a separate entry of the source. Read-outs that look alike come from different tables or passages of the source. Some results are limits rather than exact numbers.

Take “Ac-DKNADGWIDAApSLK-NH2 (DKNADGWIDAASLK; HELM PEPTIDE1{[ac].D.K.N.A.D.G.W.I.D.A.A.[O=C([C@H](COP(=O)(O)O)N[*:1])[*:2]].L.K.[am]}$$$$V2.0; SMILES CC[C@H](C)[C@H](NC(=O)[C@H](Cc1c[nH]c2ccccc12)NC(=O)CNC(=O)[C@H](CC(=O)O)NC(=O)[C@H](C)NC(=O)[C@H](CC(N)=O)NC(=O)[C@H](CCCCN)NC(=O)[C@H](CC(=O)O)NC(C)=O)C(=O)N[C@@H](CC(=O)O)C(=O)N[C@@H](C)C(=O)N[C@@H](C)C(=O)N[C@@H](COP(=O)(O)O)C(=O)N[C@@H](CC(C)C)C(=O)N[C@@H](CCCCN)C(N)=O) [phosphorylated pKID-PKC]”: in test [1] (10 μM peptide), the Kd is 216 µM.

On to “Ac-DKNADGWIDAApSPA-NH2 (DKNADGWIDAASPA; HELM PEPTIDE1{[ac].D.K.N.A.D.G.W.I.D.A.A.[O=C([C@H](COP(=O)(O)O)N[*:1])[*:2]].P.A.[am]}$$$$V2.0; SMILES CC[C@H](C)[C@H](NC(=O)[C@H](Cc1c[nH]c2ccccc12)NC(=O)CNC(=O)[C@H](CC(=O)O)NC(=O)[C@H](C)NC(=O)[C@H](CC(N)=O)NC(=O)[C@H](CCCCN)NC(=O)[C@H](CC(=O)O)NC(C)=O)C(=O)N[C@@H](CC(=O)O)C(=O)N[C@@H](C)C(=O)N[C@@H](C)C(=O)N[C@@H](COP(=O)(O)O)C(=O)N1CCC[C@H]1C(=O)N[C@@H](C)C(N)=O) [phosphorylated pKID-Erk]”, for which the Kd in test [1] (10 μM peptide) worked out at 124 µM.

As to “Ac-DKNADGWIDRApSLA-NH2 (DKNADGWIDRASLA; HELM PEPTIDE1{[ac].D.K.N.A.D.G.W.I.D.R.A.[O=C([C@H](COP(=O)(O)O)N[*:1])[*:2]].L.A.[am]}$$$$V2.0; SMILES CC[C@H](C)[C@H](NC(=O)[C@H](Cc1c[nH]c2ccccc12)NC(=O)CNC(=O)[C@H](CC(=O)O)NC(=O)[C@H](C)NC(=O)[C@H](CC(N)=O)NC(=O)[C@H](CCCCN)NC(=O)[C@H](CC(=O)O)NC(C)=O)C(=O)N[C@@H](CC(=O)O)C(=O)N[C@@H](CCCNC(=N)N)C(=O)N[C@@H](C)C(=O)N[C@@H](COP(=O)(O)O)C(=O)N[C@@H](CC(C)C)C(=O)N[C@@H](C)C(N)=O) [phosphorylated pKID-PKA]”, the “change of dissociation constant of phosphopeptide-Tb^3+ complex in the presence of Ca^2+” value in test [1] (100 μM Ca^2+) was “did not significantly change”. The dissociation constant Kd in test [1] (10 μM peptide) came out at 220 µM; in test [1] (+ 100 μM Ca^2+), 228 µM; in test [1] (+ 2 mM Mg^2+) it was 174 µM.

“DKNADGWIDAASLK [non-phosphorylated pKID-PKC, Ac-DKNADGWIDAASLK-NH2, EF hand domain with Glu12 replaced by serine and a protein kinase C recognition domain]”: the “phosphorylation by PKA (result in words), determined by HPLC” value at Protein Kinase A (PKA) [2] was “no evidence of phosphorylation; also recorded: not phosphorylated”. Also, in test [3], the “Ho^3+ binding observed via Tb^3+ luminescence” value is “loss of Tb^3+ luminescence”. Also, in test [1] (10 μM peptide), the equilibrium dissociation constant (Kd) is over 6000 µM.

Take “DKNADGWIDAASPA [non-phosphorylated pKID-Erk, Ac-DKNADGWIDAASPA-NH2, EF hand domain with Glu12 replaced by serine and an Erk recognition domain]”: the “phosphorylation by PKA (result in words), determined by HPLC” value at Protein Kinase A (PKA) [2] is listed as “no evidence of phosphorylation; also recorded: not phosphorylated”. In addition, the Kd in test [1] (10 μM peptide) was over 3000 µM.

As for “DKNADGWIDRASLA [non-phosphorylated pKID-PKA, Ac-DKNADGWIDRASLA-NH2, EF hand domain with Glu12 replaced by serine and a protein kinase A recognition domain]”, on Protein Kinase A (PKA) [2], the “conversion to phosphorylated peptide by PKA, determined by HPLC” value is over 95%. In addition, the “phosphorylation conversion measured by HPLC” value at Protein Kinase A (PKA) [4] turned out to be 75%. Besides, the “phosphorylation conversion determined by fluorescence and HPLC” value in test [5] was “approximately 10%”. The “Tb^3+ binding in the presence of Mg^2+” value in test [1] (2 mM Mg^2+) is recorded as “not observed”. Also, the Kd in test [1] (10 μM peptide) and in test [1] (+ 2 mM Mg^2+) was over 5000 µM throughout.

The values above are taken from patent publication US8003759B2, “Protein kinase-inducible domains” (University of Delaware, priority 2006, dated 2011).
